Measured values as given in patent publication US8658687B2, “Injectable formulations containing asenapine and method of treatment using same” (Merck Sharp & Dohme Corp., priority 2009, dated 2014).

Key:
[1] = Stability of particles suspended in pH 7 phosphate buffer on storage, crystal form followed by DSC; format: physicochemical; conditions: suspended in phosphate buffer pH 7, stored at 30° C. and 40° C.
Method: With reference to FIG. 2a, the conversion of Form I to Form II was monitored by periodically taking aliquots of the stored suspension, isolating the suspended solids by filtration and drying the isolated solids at room temperature. DSC analysis was performed on the isolated, dried solids using a 10 mg sample of the solids and a Mettler DSC 822e programmed to heat at a rate of 10° C./min, from 25° C. to 250° C. The results of this study are presented in, with the result shown in the upper traces of FIG. 2a.

[2] = In vitro dissolution in USP paddle stirring dissolution apparatus; conditions: for rate of dissolution, Form I compared with Form II (FIG. 8a): phosphate buffered saline 10 mM pH 7.0, 37° C., 100 RPM, similar particle size fractions
Method: To carry out these studies, particle, fractions of crystalline Form II of asenapine hemipamoate having d50, values of 3.5 microns, 7 microns, and 20 microns respectively, (see FIG. 7e) were obtained and placed into one of the dissolution vessels of the apparatus. Prior to charging a dissolution vessel with an aliquot of particles, each of the vessels was filled with 1 L of phosphate buffered saline (10 mM, adjusted to pH 7.0) and fitted with a probe that contained a mirror and optical arrangement in its tip defining a fixed sample path. Each probe was optically connected to a central light source and detector permitting real-time photometric monitoring of the concentration of asenapine in solution as dissolution proceeded during the investigation.
The particle fractions were prepared for use in the apparatus by dispersing the sample (20 mg) in 1 mL of an aqueous solution comprising 3 wt. % macrogol 3400, 0.118 wt. % of disodium hydrogen phosphate, 0.047 wt. % sodium dihydrogen phosphate and 0.76 wt. % sodium chloride. Each determination was carried out by adjusting the apparatus to the desired dissolution conditions (temperature, paddle speed, pH of dissolution media) and injecting 50 microliter of the selected crystalline Form II of asenapine hemipamoate dispersion (equivalent to 1 mg of crystalline Form II of asenapine hemipamoate) into a dissolution vessel filled with the desired dissolution medium. Asenapine hemipamoate concentration in the dissolution medium was monitored optically using the probe system described above during the course of the dissolution.
The above-described in vitro testing methodology was used to compare the dissolution of crystalline crystalline Form I of asenapine hemipamoate hemipamoate (as precipitated) and crystalline Form II of asenapine hemipamoate (as precipitated). Accordingly, 20 mg of a particle fraction of crystalline Form I of asenapine hemipamoate having a d50 value of 19 microns, a d90 value of 41 microns and a d10 value of 3 microns was dispersed into 2 mL of a polysorbate 80 solution. An aliquot of 100 microliter of the dispersion was introduced into dissolution medium contained in a paddle stirring apparatus as described above. For these tests the dissolution vessels of the apparatus were filled with 1 L of phosphate buffered saline (10 mM, adjusted to pH 7.0). The temperature of the dissolution medium was maintained at 37° C. and the apparatus paddle speed was set at 100 RPM.
For comparison, a 100 microliter sample of a dispersion comprising 100 mg of crystalline Form II of asenapine hemipamoate particle fraction having a d50 value of 16 microns, a d90 value of 50 microns, and a d10 value of 2 microns, dispersed in 1 mL of a polysorbate 80 solution, as described above was studied under the same conditions and dissolution medium used to study the sample containing crystalline Form I of asenapine hemipamoate.

[3] = Solubility in aqueous phosphate buffer at pH 7
[4] = Plasma levels of asenapine after IM depot injection in rabbits; format: in vivo, New Zealand white rabbits; conditions: 1 mL IM injection, 20 wt % suspension, Form I mean particle size 20 micron, Form II 16 micron, rabbit
Method: Each of the formulations prepared in Example 2 were administered to a series of experimental animal subjects (New Zealand white rabbits) as a depot injection. A depot of 1 mL volume of the formulation selected was administered into the left limb of the subject. At time intervals following injection, blood samples were collected from the subject's ear artery in 0.03 mL of 0.2M EDTA, Samples were collected at 1, 3, and 6 hours post injection, then 1, 2, 3, and 6 days post injection, then on days 10, 13, 17, 20, 24 and 25. Once collected, blood samples were centrifuged for 2 min. at room temperature (125,000 N/kg). Plasma samples thus obtained were analyzed by LC/MS after adding an internal standard. The asenapine and internal standard were isolated from the sample by solid phase extraction. […]
In additional animal studies, and with Reference to FIG. 10, using the same procedures described above, suspensions comprising 20 wt % of asenapine hemipamoate of Form I (mean particle size of 20 micron) and Form II (mean particle size 16 micron) were prepared. […] Plasma levels of asenapine were determined using the above-described procedure. […]

[5] = Plasma concentration of asenapine after depot injection in patients with stable chronic schizophrenia; format: in vivo, human; conditions: 1.0 mL of 20 wt % suspension in deltoid muscle, d50 10 microns
Method: Formulations of the invention were studied in human patients diagnosed with stable chronic schizophrenia. Using the same procedure described above, a suspension was prepared comprising 20 wt % of crystalline Form II of asenapine hemipamoate. The Form II particle fraction employed to prepare the suspension yielded a d10 value of 3 microns, a d90 value of 27 microns and a d50 value of 10 microns. An injection of 1.0 mL volume of the suspension was administered in the deltoid muscle of the upper arm by inserting the needle in the thickest part of the deltoid muscle at a 90 degree angle to the skin, followed by aspiration for 5 to 10 seconds, followed by injection of the depot over a 10 second interval. The plasma concentration of asenapine provided by the depot was observed using the above-described procedure.

[6] = IM depot of suspended olanzapine pamoate particles; cited from earlier work
[7] = IM depot injection, mean particle diameter 6.63, 10.68, 17.16 or 29.96 microns, dogs; cited from earlier work

CN1C[C@@H]2c3ccccc3Oc3ccc(Cl)cc3[C@H]2C1.CN1C[C@@H]2c3ccccc3Oc3ccc(Cl)cc3[C@H]2C1.O=C(O)c1cc2ccccc2c(Cc2c(O)c(C(=O)O)cc3ccccc23)c1O [crystalline Form I of asenapine hemipamoate] [reference compound]
stability of crystalline form on storage of suspension (DSC of recovered solids) [1]: slowly converted to crystalline Form II of asenapine hemipamoate
rate of dissolution, Form I compared with Form II (FIG. 8a) [2]: significantly higher
solubility of Form I relative to Form II [3]: approximately 4 times
initial plasma levels, Form I versus Form II (FIG. 10) [4]: burst release

CN1C[C@@H]2c3ccccc3Oc3ccc(Cl)cc3[C@H]2C1.CN1C[C@@H]2c3ccccc3Oc3ccc(Cl)cc3[C@H]2C1.O=C(O)c1cc2ccccc2c(Cc2c(O)c(C(=O)O)cc3ccccc23)c1O [crystalline Form II of asenapine hemipamoate]
stability of crystalline form on storage of suspension (DSC of recovered solids) [1]: does not decompose or convert to any other crystalline form
effect of temperature of dissolution medium on dissolution behavior (FIG. 7b) ([2]; 35° C. to 39° C.): reasonably insensitive to variation in temperature
effect of paddle speed on dissolution behavior (FIG. 7d) ([2]; 50 rpm to 150 rpm): reasonably insensitive to variation in the paddle speed
effect of dissolution medium pH on rate of dissolution (FIG. 7c) ([2]; pH 6 to pH 8, d50 3.5 or 20 micron fractions): does not significantly vary the rate of dissolution
rate of dissolution, Form I compared with Form II (FIG. 8a) [2]: dissolve much slower
effect of d50 value of particle fraction on rate of dissolution (FIG. 7a) ([2]; same conditions, d50 3.5, 7, 20 microns): greatly influenced by the d50 value
period of controlled release of asenapine (FIG. 11) [5]: about 4 weeks

Cc1cc2c(s1)Nc1ccccc1N=C2N1CCN(C)CC1.O.O=C(O)c1cc2ccccc2c(Cc2c(O)c(C(=O)O)cc3ccccc23)c1O [olanzapine pamoate]
adverse events in trials [6]: extreme sedation and reversible coma

CCC1(c2ccccc2)C(=O)NC(=O)NC1=O [phenobarbital]
plasma concentrations of phenobarbital versus mean particle diameter (FIG. 1) [7]: tracked inversely with the mean particle diameter
